According to US11566039B2, “Lincosamide antibiotics and uses thereof” (President and Fellows of Harvard College, priority 2017, dated 2023):
Converted amounts (≈) assume the structure as drawn.

Experiments:
Type in all cases: cell-based
S. aureus ATCC 29213 = assay: MIC against S. aureus ATCC 29213; conditions: Staphylococcus aureus, ATCC29213, S. aureus ATCC 29213; read-out: MIC
S. aureus BAA 977 iErmA = assay: MIC against S. aureus BAA 977 iErmA; conditions: Staphylococcus aureus, BAA977
[1] = test system: S. aureus MP-549 msr(a) USA 300; assay: MIC against S. aureus MP-549 msr(a) USA 300; conditions: Staphylococcus aureus, USA300, S. aureus MP-549 msr(a) USA 300
S. pneumoniae ATCC 49619 = assay: MIC against S. pneumoniae ATCC 49619; conditions: Streptococcus pneumoniae, ATCC49619, S. pneumoniae ATCC 49619; read-out: MIC
S. pyogenes ATCC 19615 = assay: MIC against S. pyogenes ATCC 19615; conditions: Streptococcus pyogenes, ATCC19615, S. pyogenes ATCC 19615; read-out: MIC
E. faecalis ATCC 29212 = assay: MIC against E. faecalis ATCC 29212; conditions: Enterococcus faecalis, ATCC29212, E. faecalis ATCC 29212; read-out: MIC
C. difficile BAA 1805 = assay: MIC against C. difficile BAA 1805; conditions: Clostridioides difficile, BAA1805
K. pneumoniae ATCC 10031 = assay: MIC against K. pneumoniae ATCC 10031; conditions: Klebsiella pneumoniae, ATCC10031, read-out: MIC
E. coli ATCC 25922 = assay: MIC against E. coli ATCC 25922; conditions: Escherichia coli, ATCC25922, read-out: MIC
E. coli MP-9 ΔTolC = assay: MIC against E. coli MP-9 ΔTolC; conditions: Escherichia coli
[2] = test system: E. coli MP-74 LptD mutant; assay: MIC against E. coli MP-74 LptD mutant; conditions: Escherichia coli
H. influenzae ATCC 49247 = assay: MIC against H. influenzae ATCC 49247; conditions: Haemophilus influenzae, ATCC49247, H. influenzae ATCC 49247; read-out: MIC

Compound	MIC (S. aureus ATCC 29213)	MIC (S. aureus BAA 977 iErmA)	MIC [1]	MIC (S. pneumoniae ATCC 49619)	MIC (S. pyogenes ATCC 19615)	MIC (E. faecalis ATCC 29212)	MIC (C. difficile BAA 1805)	MIC (K. pneumoniae ATCC 10031)	MIC (E. coli ATCC 25922)	MIC (E. coli MP-9 ΔTolC)	MIC [2]	MIC (H. influenzae ATCC 49247)
CCC[C@@H]1C[C@@H](C(=O)N[C@H]([C@H](C)NC(=O)CN(C)C)[C@H]2OC(SC)[C@H](O)C(O)C2O)N(C)C1 (stereo partly drawn) [FSA-215078b]	> 64 µg/mL	> 64 µg/mL	> 64 µg/mL	8 µg/mL (≈ 16.3 µM)	8 µg/mL (≈ 16.3 µM)	> 64 µg/mL	> 64 µg/mL	> 64 µg/mL	> 64 µg/mL	> 64 µg/mL	> 64 µg/mL	> 64 µg/mL
CCC[C@@H]1C[C@@H](C(=O)N[C@H](CN)[C@H]2OC(SC)[C@H](O)C(O)C2O)N(C)C1 (stereo partly drawn) [FSA-215077]	> 64 µg/mL	> 64 µg/mL	> 64 µg/mL	> 64 µg/mL	> 64 µg/mL	> 64 µg/mL	–	> 64 µg/mL	> 64 µg/mL	> 64 µg/mL	> 64 µg/mL	> 64 µg/mL
CCC[C@@H]1C[C@@H](C(=O)N[C@@H]([C@H]2OC(SC)[C@H](O)C(O)C2O)[C@H](C)N(C)C)N(C)C1 (stereo partly drawn) [FSA-215070]	64 µg/mL (≈ 148 µM)	64 µg/mL (≈ 148 µM)	64 µg/mL (≈ 148 µM)	16 µg/mL (≈ 36.9 µM)	32 µg/mL (≈ 73.8 µM)	> 64 µg/mL	> 64 µg/mL	> 64 µg/mL	> 64 µg/mL	> 64 µg/mL	> 64 µg/mL	> 64 µg/mL
CCC[C@@H]1C[C@@H](C(=O)N[C@@H]([C@H]2OC(SC)[C@H](O)C(O)C2O)[C@H](C)n2cc(CN)nn2)N(C)C1 (stereo partly drawn) [FSA-215072]	> 64 µg/mL	> 64 µg/mL	–	8 µg/mL (≈ 16.4 µM)	8 µg/mL (≈ 16.4 µM)	> 64 µg/mL	–	> 64 µg/mL	> 64 µg/mL	> 64 µg/mL	> 64 µg/mL	–
CCC[C@@H]1C[C@@H](C(=O)N[C@H]([C@H](C)NC(=O)CN)[C@H]2OC(SC)[C@H](O)C(O)C2O)N(C)C1 (stereo partly drawn) [FSA-215071]	> 64 µg/mL	> 64 µg/mL	> 64 µg/mL	8 µg/mL (≈ 17.3 µM)	16 µg/mL (≈ 34.6 µM)	> 64 µg/mL	> 64 µg/mL	> 64 µg/mL	> 64 µg/mL	> 64 µg/mL	> 64 µg/mL	> 64 µg/mL
CCC[C@@H]1C[C@@H](C(=O)N[C@@H]([C@H]2OC(SC)[C@H](O)C(O)C2O)[C@H](C)n2ccnc2)N(C)C1 (stereo partly drawn) [FSA-215064]	64 µg/mL (≈ 140 µM)	> 64 µg/mL	–	16 µg/mL (≈ 35 µM)	8 µg/mL (≈ 17.5 µM)	> 64 µg/mL	–	> 64 µg/mL	> 64 µg/mL	> 64 µg/mL	> 64 µg/mL	–
CCC[C@@H]1C[C@@H](C(=O)N[C@H]([C@H](C)N)[C@H]2OC(SC)[C@H](O)C(O)C2O)N(C)C1 (stereo partly drawn) [FSA-215049, 7-(S)-deoxyaminolincomycin]	64 µg/mL (≈ 158 µM)	64 µg/mL (≈ 158 µM)	32 µg/mL (≈ 78.9 µM)	8 µg/mL (≈ 19.7 µM)	16 µg/mL (≈ 39.5 µM)	> 64 µg/mL	> 64 µg/mL	> 64 µg/mL	> 64 µg/mL	> 64 µg/mL	> 64 µg/mL	> 64 µg/mL
CCC[C@@H]1C[C@@H](C(=O)N[C@H]([C@H](C)NCc2ccc(F)cc2)[C@H]2OC(SC)[C@H](O)C(O)C2O)N(C)C1 (stereo partly drawn) [FSA-215025d]	4 µg/mL (≈ 7.79 µM)	4 µg/mL (≈ 7.79 µM)	–	2 µg/mL (≈ 3.89 µM)	1 µg/mL (≈ 1.95 µM)	> 64 µg/mL	–	> 64 µg/mL	> 64 µg/mL	> 64 µg/mL	–	–
CCC[C@@H]1C[C@@H](C(=O)N[C@H]([C@H](C)NC(=N)N)[C@H]2OC(SC)[C@H](O)C(O)C2O)N(C)C1 (stereo partly drawn) [FSA-215059]	32 µg/mL (≈ 71.5 µM)	32 µg/mL (≈ 71.5 µM)	–	8 µg/mL (≈ 17.9 µM)	4 µg/mL (≈ 8.94 µM)	> 64 µg/mL	–	> 64 µg/mL	> 64 µg/mL	> 64 µg/mL	> 64 µg/mL	–
CCC[C@@H]1C[C@@H](C(=O)N[C@@H]([C@H]2OC(SC)[C@H](O)C(O)C2O)[C@H](C)N(C)Cc2ccccc2[N+](=O)[O-])N(C)C1 (stereo partly drawn) [FSA-215081]	4 µg/mL (≈ 7.21 µM)	4 µg/mL (≈ 7.21 µM)	4 µg/mL (≈ 7.21 µM)	2 µg/mL (≈ 3.61 µM)	1 µg/mL (≈ 1.8 µM)	> 64 µg/mL	–	> 64 µg/mL	> 64 µg/mL	> 64 µg/mL	> 64 µg/mL	> 64 µg/mL
